A value given as a limit tells only on which side of the number the result lay.

Results on 9 compounds are retold here after publication PMC6832219, “Synthesis of Novel Baicalein Amino Acid Derivatives and Biological Evaluation as Neuroprotective Agents” (Molecules, 2019).

The subject of data set [1] is injured SH-SY5Y cells. Briefly: Protective effect against tert-butyl hydroperoxide-induced SH-SY5Y neurotoxicity cells (MTT assay).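 As to Proliferation Rate (%): 0% equals CoCl2-injured cells and 100% equals NGF-treated cells.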 It counts as cell-based. The conditions noted are these: Homo sapiens; for viability at 3.125 µM / viability at 6.25 µM / viability at 12.5 µM / viability at 25 µM / viability at 50 µM: injured SH-SY5Y cells, read-out: Proliferation Rate (%); for EC50: tert-butyl hydroperoxide-induced SH-SY5Y neurotoxicity, read-out: EC50 for protecting injured SH-SY5Y cells. On the procedure: The protective effects of baicalein derivatives in vitro was evaluated against tert-butyl, hydroperoxide-induced, SH-SY5Y neurotoxicity cells using an MTT assay. In addition, their toxicity evaluation was tested on normal H9C2 cells. The resulting proliferation rates (%) at different concentrations, as well as their 50% effective concentrations (EC50) for protecting damaged SH-SY5Y cells of the baicalein amino acid derivatives, are summarized in Table 2.
(§1) The SH-SY5Y ([…]) and H9C2 ([…]) cell lines were obtained from the Chinese Academy of Medical Sciences and Peking Union Medical College. All of the cell lines were grown in dulbecco’s modified eagle medium (DMEM) with 10% (v/v) fetal bovine serum (FBS) and 1% (v/v) penicillin/streptomycin (Thermo Technologies, New York, NY, USA), under a humidified atmosphere containing 5% CO2 at 37 °C. The baicalein derivatives were dissolved in DMSO (Sigma, St. Louis, MO, USA) and added at various concentrations to the cell culture.
(§2) The protective effect of these compounds was evaluated on SH-SY5Y and H9C2 cell lines via the MTT method. The cells growing in the logarithmic phase were cultured in 96-well plates at a density 3 × 10^3 cells/well and incubated for 24 h. Then each well was treated with the required concentrations (50 µM concentrations, 25 µM concentrations, 12.5µM concentrations, 6.25 µM concentrations, and 3.125 µM concentrations) of baicalein derivatives, and incubated 36 h at 37 °C with 5% CO2. After that, the cells were induced by H2O2 (final concentration, […]) for 12 h. Control-differentiated cells were injected with new growth media at equal amounts. Before […] MTT solution (5 mg/mL) was added to each well, the cell culture fluid was discarded, and […] fresh cell culture fluid was added. The plate was incubated for a further 4 h at 37 °C. The cell supernatant medium was removed carefully, without disturbing the attached cells, and formazan crystals were solubilized by adding 150 μL DMSO into each well. The absorbance was measured at 490 nm with a plate reader (BIORAD 550 spectrophotometer, Bio-rad Life Science Development Ltd., Beijing, China). H2O2 was dissolved in DMEM medium. Wells without drugs were used as blanks. The EC50 values were defined as the concentrations that causes the maximum effect of 50%; IC50 values were defined as the concentration of compound which gives 50% growth inhibition, and were calculated using the GraphPad Prism 5. The proliferation rates of damaged SH-SY5Y cells were calculated in the following formula (1): [OD490 (compound) − OD490 (CoCl2)]/[OD490 (NGF) − OD490 (CoCl2)] × 100%(1) The EC50 values were using the equation −pEC50 = log Cmax − log 2 × (ΣP − 0.75 + 0.25Pmax + 0.25Pmin)(2) where Cmax is the maximum concentration, ΣP is the sum of proliferation rates, Pmax is the maximum value of the proliferation rate, and Pmin is the minimum value of the proliferation rate. Cell viability was expressed as a percentage of the control.
(Formazan colour is commonly taken as a measure of viable cells.)

Data set [2] concerns H9C2 cells. Briefly: Toxicity on normal H9C2 cells (MTT assay). It counts as cell-based. The conditions noted are these: MTT; for viability at 6.25 µM / viability at 12.5 µM / viability at 25 µM / viability at 50 µM: H9C2 cells, read-out: Survival Rate (%); for IC50: normal H9C2 cells. On the procedure: To study cytotoxicity on normal cells, the cytotoxicity of compounds against normal H9C2 cells were tested.
as §1, §2
The inhibition rate was calculated in the following equation: % inhibition = 1 − (Sample group OD/Control group OD) × 100%(3)

Data set [3] has as its system H9C2 cells. The experiment in a line: Toxicity on normal H9C2 cells (MTT assay). It counts as cell-based. The conditions noted are these: read-out: Survival Rate (%).

Consider `O=C(CC(NC(=O)OCc1ccccc1)C(=O)Oc1c(O)cc2oc(-c3ccccc3)cc(=O)c2c1O)OCc1ccccc1` (stereo not drawn) [Compound 9, 1-benzyl 5,7-dihydroxy-4-oxo-2-phenyl-4H-chromen-6-yl 3-{[(benzyloxy)carbonyl]amino} butanedioate], for which the melting point is 100.7 °C. For the same compound, in data set [1], the viability at 3.125 µM amounted to 28.1%, the viability at 6.25 µM was determined as 98.2%, the viability at 12.5 µM was found to be 79.6% and the viability at 25 µM stood at 101%. In data set [1], the viability at 50 µM amounted to 84.2% and the half-maximal effective concentration (EC50) is 4.47 µM. In addition, in data set [2], the viability at 6.25 µM was found to be 153%, the viability at 12.5 µM turned out to be 133%, the viability at 25 µM was determined as 130% and the viability at 50 µM is 115%. The compound further came in with an IC50 in data set [2] of over 100 µM. The viability at 100 µM in data set [3] was 107%.

Regarding `O=C(CC(NC(=O)OCc1ccccc1)C(=O)OCc1ccccc1)Oc1c(O)cc2oc(-c3ccccc3)cc(=O)c2c1O` (stereo not drawn) [Compound 4, 1-benzyl 5,7-dihydroxy-4-oxo-2-phenyl-4H-chromen-6-yl 2-{[(benzyloxy)carbonyl]amino} butanedioate], the melting point is 157.8 °C. Moreover, in data set [1], the viability at 3.125 µM was found to be 59.1%, the viability at 6.25 µM is 94.1%, the viability at 12.5 µM worked out at 77.7% and the viability at 25 µM amounted to 70.2%. In data set [1], the viability at 50 µM was 54.8% and the EC50 was 5.51 µM. Further, in data set [2], the viability at 6.25 µM turned out to be 156%, the viability at 12.5 µM turned out to be 140%, the viability at 25 µM is 140% and the viability at 50 µM came to 131%. In addition, the IC50 in data set [2] is over 100 µM. Also, in data set [3], the viability at 100 µM worked out at 126%.

The compound `CCC(C)C(NC(=O)OCc1ccccc1)C(=O)Oc1cc2oc(-c3ccccc3)cc(=O)c2c(O)c1O` (stereo not drawn) [Compound 7, 5,6-dihydroxy-4-oxo-2-phenyl-4H-chromen-7-yl 2-{[(benzyloxy)carbonyl]amino}-3-methyl-pentanoate] showed a melting point of 155.7 °C. For the same compound, in data set [1], the viability at 3.125 µM is 63.6%, the viability at 6.25 µM is 69.7%, the viability at 12.5 µM came out at 79.8% and the viability at 25 µM was determined as 79.8%. In addition, in data set [1], the viability at 50 µM was found to be 72.2% and the EC50 is 5.24 µM. Besides, in data set [2], the viability at 6.25 µM is 152%, the viability at 12.5 µM was 147%, the viability at 25 µM came to 145% and the viability at 50 µM came out at 139%. Moreover, the concentration for half-maximal inhibition (IC50) in data set [2] is over 100 µM. Besides, the viability at 100 µM in data set [3] turned out to be 124%.

`CC(C)(C)C(NC(=O)OCc1ccccc1)C(=O)Oc1c(O)cc2oc(-c3ccccc3)cc(=O)c2c1O` (stereo not drawn) [Compound 3, 5,7-dihydroxy-4-oxo-2-phenyl-4H-chromen-6-yl 2-{[(benzyloxy)carbonyl]amino}-3,3-dimethylbutanoate] gave a melting point of 170.1 °C. In addition, in data set [1], the viability at 3.125 µM came to 15.3%, the viability at 6.25 µM was 14.8%, the viability at 12.5 µM stood at 8.1% and the viability at 25 µM is 0.15%. Also, in data set [1], the viability at 50 µM is -0.18% and the half-maximal effective concentration (EC50) was found to be 62.4 µM. Moreover, in data set [2], the viability at 6.25 µM amounted to 144%, the viability at 12.5 µM was 137%, the viability at 25 µM was 135% and the viability at 50 µM came to 132%. Moreover, in data set [2], the IC50 is over 100 µM. For the same compound, in data set [3], the viability at 100 µM worked out at 104%.

As to `CC(C)C(NC(=O)OCc1ccccc1)C(=O)Oc1c(O)cc2oc(-c3ccccc3)cc(=O)c2c1O` (stereo not drawn) [Compound 1, 5,7-dihydroxy-4-oxo-2-phenyl-4H-chromen-6-yl 2-{[(benzyloxy)carbonyl]amino}-3-methylbutanoate], the melting point amounted to 199.7 °C. Further, in data set [1], the viability at 3.125 µM is 56%, the viability at 6.25 µM was determined as 84.3%, the viability at 12.5 µM came to 81.8% and the viability at 25 µM stood at 67.3%. Moreover, in data set [1], the viability at 50 µM came out at 54.9% and the EC50 worked out at 6.07 µM. Further, in data set [2], the viability at 6.25 µM is 270%, the viability at 12.5 µM amounted to 260%, the viability at 25 µM amounted to 231% and the viability at 50 µM stood at 216%. Moreover, the 50% inhibitory concentration (IC50) in data set [2] was over 100 µM. Further, the viability at 100 µM in data set [3] stood at 204%.

With `O=C(NCCCCC(NC(=O)OCc1ccccc1)C(=O)Oc1cc2oc(-c3ccccc3)cc(=O)c2c(O)c1O)OCc1ccccc1` (stereo not drawn) [Compound 12, 5,6-dihydroxy-4-oxo-2-phenyl-4H-chromen-7-yl 2,6-di{[(benzyloxy)carbonyl]amino} hexanoate], the melting point turned out to be 144.9 °C. For the same compound, in data set [1], the viability at 3.125 µM was determined as 1.1%, the viability at 6.25 µM worked out at 2.35%, the viability at 12.5 µM was found to be 7.83% and the viability at 25 µM was 20.8%. In data set [1], the viability at 50 µM turned out to be 7.34% and the EC50 is 61.6 µM. Moreover, in data set [2], the viability at 6.25 µM was 216%, the viability at 12.5 µM was 207%, the viability at 25 µM turned out to be 200% and the viability at 50 µM stood at 187%. The 50% inhibitory concentration (IC50) in data set [2] is over 100 µM. In addition, the viability at 100 µM in data set [3] came out at 184%.

In turn, `CC(C)(C)C(NC(=O)OCc1ccccc1)C(=O)Oc1cc2oc(-c3ccccc3)cc(=O)c2c(O)c1OC(=O)C(NC(=O)OCc1ccccc1)C(C)(C)C` (stereo not drawn) [Compound 2] yielded a melting point of 195.8 °C. In data set [1], the viability at 3.125 µM was 45.1%, the viability at 6.25 µM came out at 48.2%, the viability at 12.5 µM was found to be 81% and the viability at 25 µM worked out at 107%. Besides, in data set [1], the viability at 50 µM came to 94.2% and the EC50 was 4.79 µM. For the same compound, in data set [2], the viability at 6.25 µM stood at 213%, the viability at 12.5 µM came out at 150%, the viability at 25 µM came out at 133% and the viability at 50 µM stood at 112%. This compound also registered an IC50 in data set [2] of over 100 µM. The viability at 100 µM in data set [3] came to 108%.

In turn, `CC(NC(=O)OC(C)(C)C)C(=O)Oc1c(O)cc2oc(-c3ccccc3)cc(=O)c2c1O` (stereo not drawn) [Compound 14, 5,7-dihydroxy-4-oxo-2-phenyl-4H-chromen-6-yl 2-{[(tert-butoxy)carbonyl]amino} propanoate] showed a melting point of 196.7 °C. Further, in data set [1], the viability at 3.125 µM worked out at 0.35%, the viability at 6.25 µM was found to be 3.34%, the viability at 12.5 µM is 7.09% and the viability at 25 µM was determined as 4.09%. In data set [1], the viability at 50 µM was 0.1% and the EC50 is 74.9 µM. In data set [2], the viability at 6.25 µM stood at 185%, the viability at 12.5 µM was 166%, the viability at 25 µM was found to be 137% and the viability at 50 µM is 129%. This compound also registered an IC50 in data set [2] of over 100 µM. Further, the viability at 100 µM in data set [3] amounted to 97.1%.

Regarding `CC(C)CC(NC(=O)OC(C)(C)C)C(=O)Oc1cc2oc(-c3ccccc3)cc(=O)c2c(O)c1O` (stereo not drawn) [Compound 15, 5,6-dihydroxy-4-oxo-2-phenyl-4H-chromen-7-yl 2-{[(tert-butoxy)carbonyl]amino}-4-methyl-pentanoate], the melting point was 199.3 °C. In data set [1], the viability at 3.125 µM turned out to be 17.8%, the viability at 6.25 µM was 42.8%, the viability at 12.5 µM worked out at 42.5% and the viability at 25 µM was 41.3%. For the same compound, in data set [1], the viability at 50 µM is 22.3% and the half-maximal effective concentration (EC50) is 23.9 µM. For the same compound, in data set [2], the viability at 6.25 µM stood at 196%, the viability at 12.5 µM came out at 193%, the viability at 25 µM was found to be 177% and the viability at 50 µM came out at 173%. This compound returned an IC50 in data set [2] of over 100 µM. Further, in data set [3], the viability at 100 µM was 159%.

The term EC50 denotes the concentration that produces a half-maximal response. The term IC50 denotes the midpoint of a concentration-inhibition curve. Lower therefore signals greater potency in that assay. In general, melting point refers to the temperature of the solid-liquid transition.
